The values that follow are results of earlier work, collected in patent US6187343A, “Proceeding for the preparation of the prolonged action granule compound containing 4-nitro-2-phenoxymethanesulfonanilide” (priority 1997, dated 2001).

The structures appear in SMILES notation.

The conditions of the data set: in vivo.

Consider `CS(=O)(=O)Nc1ccc([N+](=O)[O-])cc1Oc1ccccc1` [NIMESULIDE, 4-nitro-2-phenoxymethanesulfonanilide], for which the adverse effects result is “adverse effects of the digestive type”.
